Reference: US20140275090A1, “BILE ACID RECYCLING INHIBITORS FOR TREATMENT OF PRIMARY SCLEROSING CHOLANGITIS AND INFLAMMATORY BOWEL DISEASE” (Lumena Pharmaceuticals, Inc., priority 2013, published 2014)
Values joined by “and” are separate entries in the source; they are usually repeats but may differ in a detail not shown here. Identical values can stand only once. Values belong to the compound of their own block, whether it stands above or below them.

Legend:
fecal bile acids = experiment: Fecal bile acid excretion in ZDF rats after oral 264W94; type: in vivo, ZDF rat; conditions: 0.001-10 mg/kg oral gavage twice a day, 2 weeks
Protocol: (§1) Male Zucker diabetic fatty rats (ZDF/GmiCrl-fa/fa) were purchased from Charles River (Raleigh, N.C.) and housed under controlled conditions (12:12 light-dark cycle, 24° C. and 50% relative humidity) with free access to rodent food (Purina 5008, Harlan Teklad, Indianapolis, Ind.). All rats arrived at seven weeks of age (±3 days). After a one-week acclimation period, rats were anesthetized with isoflurane (Abbott Laboratories, IL) and tail-vein blood samples were collected at 9 am without fasting. Blood glucose levels were measured using a glucometer (Bayer, Leverkusen, Germany). In order to ensure balanced treatment groups, ZDF rats were assigned to six treatment groups based upon baseline glucose: vehicle (0.5% HPMC, 0.1% Tween80) and five doses of 264W94 (0.001, 0.01, 0.1, 1, 10 mg/kg). All treatments were given via oral gavage twice a day and animals were followed for two weeks with blood samples collected from tail vein at the end of each week at 9 am without fasting. Fecal samples were collected for 24 hours during the second week of treatment.
(§2) Non-esterified fatty acids (NEFA), bile acids, and bile acids in fecal extraction were measured using the Olympus AU640 clinical chemistry analyzer (Beckman Coulter, Irving, Tex.).

total serum bile acids = experiment: ZDF rat 3-week study: plasma total serum bile acids; type: in vivo; conditions: ZDF rats, twice daily oral gavage, Week 3
Protocol: (§3) Animals were acclimatized for 5-7 days after arrival.
(§4) Key efficacy, metabolic and liver function parameters were assessed: Total 24 hr fecal and total serum bile acid concentrations; Plasma ALP, ALT, AST, BUN, creatinine; Fasting glucose and insulin concentrations, glucose/insulin ratio, blood percent HbA1c and Oral Glucose Tolerance Test (glucose excursion, insulin, GLP-1); Plasma GLP-1, GLP-2 and FGF21 concentrations.

[1] = test system: plasma lipase, plasma amylase; experiment: ZDF rat 3-week study: exocrine pancreas function (plasma lipase, amylase); type: in vivo; conditions: ZDF rats; for Plasma Amylase: Week 3; for Plasma Lipase: Week 3, higher doses
Protocol: as §3, §4

plasma bile acids = experiment: Plasma bile acid concentrations in ZDF rats, oral gavage twice a day for 2 weeks; type: in vivo, ZDF rat
Protocol: as §1, with “All treatments were given via oral gavage twice a day and animals were followed for two weeks with blood samples collected from tail vein at the end of each week at 9 am without fasting. Fecal samples were collected for 24 hours during the second week of treatment.” left out
as §2
Male ZDF rats (n=4) were administered vehicle, SC-435 (1, 10 or 30 mg/kg) or LUM002 (0.3, 1, 3, 10 or 30 mg/kg) by oral gavage twice a day for 2 weeks. Plasma bile acid levels were determined at the end of the second week. […] Data are expressed as mean values ±SEM.

Hemoglobin A1c (HbA1c) = experiment: ZDF rat 3-week study: baseline-corrected percent HbA1c; type: in vivo; conditions: ZDF rats, twice daily oral gavage
Protocol: as §3, §4

plasma ALP, ASAT, ALAT = experiment: ZDF rat 3-week study: liver function (ALP, ASAT, ALAT); type: in vivo; conditions: ZDF rats, twice daily oral gavage, Week 3
Protocol: as §3, §4

[2] = Pharmacokinetics of [14C]LUM002 after single PO or IV administration to rats; type: in vivo, Sprague Dawley Rat
Protocol: To each rat either a single oral (PO; 20 mg/kg free acid) or a single intravenous (IV; 2 mg/kg free acid) dose of [^14C]LUM002 was administered. For PO and IV administration, the test substance was prepared with the adequate amount of water to reach a solution with a concentration of approximately 4 mg/g (PO) and 1 mg/g (IV). Oral administration was a gavage using a stomach tube and IV administration was a bolus injection into the tail vein. Exact doses administered to animals were calculated according to syringe weights.
The doses of radioactivity actually administered were determined by using standards prior to and after treatment of the animals. Blood—Animals were anaesthetized (Isoflurane) for blood sampling (3 animals/time point) and then euthanized by […]. Blood samples (maximal volume from each animal approx. 8 mL) were withdrawn from the abdominal aorta into containers containing a small amount of lithium heparin. and samples were centrifuged for 2 minutes at 1540 g. Aliquots (100 μL) of blood were used for hematocrit determination. Animals for the control groups (male and/or female) were used as predose animals for sampling of untreated biological samples (blood and plasma or liver, myocardium, kidneys only from male control animals). Plasma—To obtain plasma, blood samples were centrifuged for 10 minutes and stored cooled before final division.
Bioanalytical analysis −50 μL of plasma samples were placed into an 1.5 mL reaction tube. 5 μL methanol was added to each sample. For protein precipitation, 100 μL of the internal standard working solution (100 ng/mL of benzyl-13C6-LUM002 in acetonitrile) and 50 μL acetonitrile were added. In case of double blank samples, pure acetonitrile was added. Tubes were sealed and mixed thoroughly for 10 seconds. The tubes were centrifuged for 5 minutes at ≧3000 g. 50 μL of the clear supernatant was transferred into an autoinjector vial and were diluted with 50 μL deionized water. Analysis of samples was performed by using LC-MS/MS (injection volume 50-75 μL) with a lower limit of quantification in the assay of 1 ng/mL for LUM002.

[3] = Pharmacokinetics of LUM002 single 100 mg oral solution in healthy male subjects; type: in vivo, human
Protocol: Healthy male subjects, from 18 to 45 years of age, were given a single oral solution dose (100 mg in 100 mL) of LUM002 under fasting conditions. Blood samples for the determination of LUM002 plasma concentration were collected predose and 0.5, 1, 2, 3, 4, 5, 6, 8, 10, 12, 16, 24, and 48 hours after treatment administration. Plasma was obtained by centrifugation and […] processed for protein precipitation, centrifuged again to remove the precipitate and the supernatant prepared for LC-MS/MS analysis. LUM002 plasma concentrations were determined using a validated liquid chromatography tandem mass spectrometry (LC-MS/MS) assay with a lower limit of quantification (LLOQ) of 0.1 ng/mL. LUM002 plasma concentrations were used to determine the following pharmacokinetic parameters using standard noncompartmental techniques: Cmax, Tmax, AUCslast, and, if applicable due to the low-absorbable characteristics of LUM002, also AUC, AUC0-24 and t1/2z.

[4] = test system: fecal excretion of [14C]taurocholic acid (TCA); experiment: Fecal excretion of [14C]taurocholic acid in Syrian hamster after LUM002; type: in vivo; conditions: nonfasted Golden Syrian hamsters, oral gavage, 24 h feces
Protocol: To study the effect of LUM002 on fecal excretion of [^14C]taurocholic acid (TCA) in the Syrian hamster in vivo, [^14C]TCA was administered intraperitoneally 1 hour before dosing the test compound. Each animal was dosed with […] [^14C]TCA. LUM002 was dosed by oral gavage (5 mL/kg per administration) in either 5% (v/v) Solutol with 0.5% hydroxyethylcellulose (HEC) or 0.5% HEC alone. The first half of dose of test compound/vehicle was given 1 hour after [^14C]TCA injection, followed by the second half of dose 7 hours after the first dose of test compound/vehicle. Feces were collected for 24 hours after [^14C]TCA administration and aliquots from feces were combusted for determination of [^14C] excretion.
The ED200 (dose which doubles the fecal excretion of [^14C] label vs. control from dose response curve, including 95% Confidence interval) was calculated from a dose response curve.

GLP-2 = experiment: ZDF rat study: GLP-2 in plasma; type: in vivo; conditions: non-fasted ZDF rats, 2 weeks treatment, higher doses
Protocol: as §3, §4

[5] = test system: liver injury after partial bile duct ligation; experiment: Partial bile duct ligation (pBDL) in rats: liver histology and cholangiocyte mitotic figures; type: in vivo, rat; conditions: for Total number of cholangiocytes in 50 fields / Total number of mitotic figures in 50 fields: pBDL rat, 10 mg/kg once daily oral gavage
Protocol: Rats were anesthetized with isoflurane, the common bile duct exposed by midline laparotomy and a short length of PE-10 tubing placed parallel to the bile duct. A ligature of 4-0 silk suture was tied tightly around the duct and tubing after which the tubing was removed resulting in constriction of the duct lumen without complete obstruction SC-435 was administered to the test group by once daily oral gavage (10 mg/kg) starting one day prior to pBDL surgery.
All animals were euthanized on Day 14. The liver was collected from all animals and preserved in 10% formalin. The preserved livers from all animals were processed, embedded in paraffin, sectioned and stained with hematoxylin and eosin (H&E). The resulting slides were evaluated. Microscopic findings, when present, were graded subjectively on a scale of 0 to 4 according to the intensity and extent of change, where 0=finding not present; 1=minimal; 2=mild; 3=moderate and 4=marked. Additionally, quantitation of cholangiocyte (bile duct epithelial cells) mitotic nuclei was accomplished by counting the number of mitotic cells and the total number of cholangiocytes in 50 randomly selected high-powered (40× objective) fields.

SMILES: CCCC[C@]1(CC)CS(=O)(=O)c2cc(OC)c(OC)cc2[C@@H](c2ccccc2)N1 [Compound 264W94]
- elevation of fecal bile acid concentrations vs vehicle treated rats (fecal bile acids): up to 6.5 fold

- AUCinf ([2]; male rat, IV bolus 2 mg/kg free acid): 0.9 ng·h/mL
- plasma exposure, 3 female and 1 male animal out of 72 ([2]; rat, PO 20 mg/kg, 2 or 4 h after administration): 1 to 5 ng/mL
- plasma exposure, all other animals ([2]; rat, PO 20 mg/kg, limit of quantitation 1 ng/mL): < 1 ng/mL
- dose systemically absorbed ([2]; rats): Less than 2%
- t1/2 ([3]; 100 mg oral solution, fasting, individual subject): 3.39 h
- dose systemically absorbed ([3]; healthy male subjects, 100 mg): Less than 1%
SMILES: CCCC[C@]1(CC)CS(=O)(=O)c2ccc(N(C)C)cc2[C@@H](c2cccc(NC(=O)N[C@@H]3O[C@H](COS(=O)(=O)[O-])[C@@H](O)[C@H](OCc4ccccc4)[C@H]3O)c2)[C@H]1O.CCO.O.[K+] [LUM002, potassium((2R,3R,4S,5R,6R)-4-benzyloxy-6-{3-[3-((3S,4R,5R)-3-butyl-7-dimethylamino-3-ethyl-4-hydroxy-1,1-dioxo-2,3,4,5-tetrahydro-1H-benzo[b]thiepin-5-yl)-phenyl]-ureido}-3,5-dihydroxy-tetrahydro-pyran-2-ylmethyl)sulphate ethanolate, hydrate]
- Plasma Total Serum Bile Acids Concentrations (total serum bile acids): statistically significant reductions
- Plasma Amylase [1]: Neither LUM002 nor SC-435 cause a statistically significant changes
- Plasma Lipase [1]: statistically significant reductions
- Plasma bile acid levels (plasma bile acids; ZDF rats, 0.3, 1, 3, 10 or 30 mg/kg twice a day): decreased
- Baseline-corrected Percent Hemoglobin A1c (HbA1c) (Hemoglobin A1c (HbA1c)): significant dose-dependent reductions
- Plasma Alkaline Phosphatase (ALP) (plasma ALP, ASAT, ALAT): significant reductions
- Plasma Aspartate Aminotransferase (ASAT) (plasma ALP, ASAT, ALAT): statistically significant reduction
- effect on fecal excretion of bile acids [4]: significantly increased
- GLP-2 in plasma (GLP-2): significant elevations

SMILES: CCCCC1(CCCC)CS(=O)(=O)c2ccc(N(C)C)cc2[C@@H](c2ccc(OCCCC[N+]34CCN(CC3)CC4)cc2)[C@H]1O.CS(=O)(=O)[O-] [SC-435, 1-[4-[4-[(4R,5R)-3,3-dibutyl-7-(dimethylamino)-2,3,4,5-tetrahydro-4-hydroxy-1,1-dioxido-1-benzothiepin-5-yl]phenoxy]butyl]-4-aza-1-azoniabicyclo[2.2.2]octane methanesulfonate salt]
- Plasma Total Serum Bile Acids Concentrations (total serum bile acids): statistically significant reductions
- Plasma Amylase [1]: Neither LUM002 nor SC-435 cause a statistically significant changes
- Plasma Lipase [1]: statistically significant reductions
- Plasma bile acid levels (plasma bile acids; ZDF rats, 1, 10 or 30 mg/kg twice a day): decreased
- Baseline-corrected Percent Hemoglobin A1c (HbA1c) (Hemoglobin A1c (HbA1c)): significant dose-dependent reductions
- Plasma Alkaline Phosphatase (ALP) (plasma ALP, ASAT, ALAT): significant reductions
- Hepatocyte necrosis ([5]; pBDL rat livers, Day 14): not present
- bile duct proliferation, mixed inflammatory cell infiltration, spindle cell proliferation vs untreated rat livers ([5]; pBDL rat livers, Day 14): reduced incidence and intensity
- hepatic necrosis and inflammatory cell infiltration ([5]; pBDL rat livers, by 14 days): less hepatic necrosis and inflammatory cell infiltration
- Total number of cholangiocytes in 50 fields ([5]; Day 14, AVG): 533
- Total number of mitotic figures in 50 fields ([5]; Day 14, AVG): 0
- Total number of mitotic figures in 50 fields ([5]; Day 14, individual rats): 0
- Total number of cholangiocytes in 50 fields ([5]; Day 14, individual rats, methanesulfonate salt, 10 mg/kg): 662 and 404
- mitotic figures in livers ([5]; pBDL rats, 14 days post surgery): No mitotic figures were observed
- morphologic features of liver injury associated cholestasis ([5]; partial bile duct ligation, rats): appeared to ameliorate or inhibit
- GLP-2 in plasma (GLP-2): significant elevations
